The results in this text go back to paper PMC6017062, “Probing the Inhibitor versus Chaperone Properties of sp^2-Iminosugars towards Human β-Glucocerebrosidase: A Picomolar Chaperone for Gaucher Disease” (Molecules : A Journal of Synthetic Chemistry and Natural …, 2018).

For data set [1], the target named is T1, β-galactosidase (β-Galase) (Escherichia coli, UniProt P00722).
T1 construct: purchased
Briefly: Commercial glycosidase inhibition: β-galactosidase from E. coli (β-Galase). As to conditions: mean ± SD, three determinations; competitive; n.i. = no inhibition detected at 1 mM. In kind it is biochemical. The source says:
(§1) We first evaluated the inhibitory properties of the new nonreducing mono- and bicyclic sp^2-iminosugars 4–15 against a panel of commercial glycosidases that included the α-glucosidases maltase (yeast maltase; α-Glcase1) and isomaltase (α-Glcase2) from Saccharomyces cerevisiae and amyloglucosidase (α-Glcase3) from Aspergillus niger, the β-glucosidases from almonds (β-Glcase1) and bovine liver (β-Glcase2), the α-galactosidase from green coffee beans (α-Galase), the β-galactosidase from Escherichia coli (β-Galase), and the α-mannosidase from Jack bean (α-Manase).
(§2) Inhibition constant (Ki) values were determined by spectrophotometrically measuring the residual hydrolytic activities of the glycosidases against the respective o- (for β-galactosidase from E. coli) or p-nitrophenyl α- or β-D-glycopyranoside (for other glycosidases) in the presence of the iminosugars. Each assay was performed in phosphate buffer or phosphate-citrate buffer (for α- or β-mannosidase and amyloglucosidase) at the optimal pH for the enzymes. The reactions were initiated by addition of the enzyme to a solution of the substrate in the absence or presence of various inhibitor concentrations. The mixture was incubated for 10–30 min at 37 °C or 55 °C (for amyloglucosidase) and the reaction was quenched by addition of 1 M Na2CO3. Reaction times were appropriate to obtain 10–20% conversion of the substrate in order to achieve linear rates. The absorbance of the resulting mixture was determined at 405 nm. Approximate value of Ki was determined from the slope of Dixon plots using a fixed concentration of substrate (around the Km value for the different glycosidases) and various concentrations of inhibitor. Full Ki determinations and enzyme inhibition mode were determined from the slope of Lineweaver–Burk plots and double reciprocal analysis.

For data set [2], the target named is T2, human β-glucocerebrosidase (GCase) (Homo sapiens, UniProt P04062, R534H).
T2 construct: purchased Genzyme (Genzyme Japan, Tokyo, Japan) / Sanofi Genzyme, Cambridge, MA, USA Cerezyme
T2 sequence (P04062 40-536 R534H): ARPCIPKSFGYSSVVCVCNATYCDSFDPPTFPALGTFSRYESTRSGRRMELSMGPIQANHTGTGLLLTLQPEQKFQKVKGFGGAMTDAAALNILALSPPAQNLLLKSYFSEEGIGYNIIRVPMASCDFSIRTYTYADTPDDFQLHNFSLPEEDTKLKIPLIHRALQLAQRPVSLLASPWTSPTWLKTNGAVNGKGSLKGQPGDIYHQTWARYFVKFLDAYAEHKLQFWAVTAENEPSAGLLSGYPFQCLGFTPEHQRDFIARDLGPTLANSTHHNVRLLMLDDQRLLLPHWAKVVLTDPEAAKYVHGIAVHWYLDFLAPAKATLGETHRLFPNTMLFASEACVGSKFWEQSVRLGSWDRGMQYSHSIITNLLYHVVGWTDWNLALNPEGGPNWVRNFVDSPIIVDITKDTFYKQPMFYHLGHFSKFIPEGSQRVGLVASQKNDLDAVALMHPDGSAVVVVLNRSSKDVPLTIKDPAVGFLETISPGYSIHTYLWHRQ
Briefly: Purified recombinant human GCase inhibition in vitro. Format: biochemical. As to conditions: for Ki: purified recombinant enzyme (Cerezyme), 4-MU glucopyranoside substrate. As to the method: Comparative assessment of the inhibition abilities of 1–4 against human lysosomal glycosidases in cell lysates (in vitro enzyme assay; see Experimental Section) confirmed the selectivity pattern previously observed for the commercial enzymes: whereas GCase was responsive to μM concentrations of the sp^2-iminosugars, the activity of lysosomal α-glucosidase, α- and β-galactosidases, α- and β-mannosidases, and hexosaminidase was not affected at concentrations of up to 200 μM. The corresponding Ki values were determined at pH 7 and 5 using purified recombinant human GCase and 4-methylumbelliferone (4-MU)-conjugated […] as the substrate (Table 2).
GCase activities were determined as above using purified human GCase, obtained from Genzyme (Genzyme Japan, Tokyo, Japan) in 0.1 M citrate buffer at pH 5 or pH 7 and 4-methylumbelliferone (4-MU)-conjugated β-D-glucopyranoside as the substrate. The reactions were terminated by adding 0.2 mL of 0.2 M glycine sodium hydroxide buffer (pH 10.7). The liberated 4-methylumbelliferone was measured in a black-well plate with a Perkin Elmer Luminescence Spectrometer, Waltham, MA, USA (excitation wavelength: 340 nm; emission: 460 nm).

Data set [3] concerns the target T3, amyloglucosidase (α-Glcase3) (Aspergillus niger, UniProt P69328).
T3 construct: purchased
Put plainly: Commercial glycosidase inhibition: amyloglucosidase (α-Glcase3). In kind it is biochemical. The following applies: mean ± SD, three determinations; competitive; n.i. = no inhibition detected at 1 mM.
Source text: as §1, §2

The target of data set [4] is β-glucosidase from almonds (β-Glcase1). Briefly: Commercial glycosidase inhibition: β-glucosidase from almonds (β-Glcase1). As to conditions: mean ± SD, three determinations; competitive; n.i. = no inhibition detected at 1 mM. In kind it is biochemical.
Source text: as §1, §2

The target in data set [5] is T4, α-glucosidase maltase (yeast maltase; α-Glcase1) (Saccharomyces cerevisiae, UniProt P53341).
T4 construct: purchased
T4 sequence (P53341 whole entry): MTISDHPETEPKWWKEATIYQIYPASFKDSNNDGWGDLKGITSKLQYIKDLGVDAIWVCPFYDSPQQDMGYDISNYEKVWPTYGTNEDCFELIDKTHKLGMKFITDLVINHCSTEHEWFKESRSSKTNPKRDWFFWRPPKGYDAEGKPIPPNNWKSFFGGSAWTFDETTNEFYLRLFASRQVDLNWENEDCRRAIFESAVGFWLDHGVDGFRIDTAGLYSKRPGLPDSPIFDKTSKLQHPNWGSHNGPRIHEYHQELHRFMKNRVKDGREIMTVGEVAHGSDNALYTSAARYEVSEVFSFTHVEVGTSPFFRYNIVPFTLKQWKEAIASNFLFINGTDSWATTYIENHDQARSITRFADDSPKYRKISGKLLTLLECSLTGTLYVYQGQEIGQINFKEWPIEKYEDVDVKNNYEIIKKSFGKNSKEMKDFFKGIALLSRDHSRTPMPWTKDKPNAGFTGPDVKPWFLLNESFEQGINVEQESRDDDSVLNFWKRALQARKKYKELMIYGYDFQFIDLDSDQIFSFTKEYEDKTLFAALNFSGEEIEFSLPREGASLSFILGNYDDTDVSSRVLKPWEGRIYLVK
Briefly: Commercial glycosidase inhibition: maltase (yeast maltase; α-Glcase1). Format: biochemical. As to conditions: mean ± SD, three determinations; competitive; n.i. = no inhibition detected at 1 mM.
Source text: as §1, §2

A further data set in a line: pKa determination. Format: physicochemical.

Like-named read-outs stand apart in the source and are kept apart here.

T3 sequence (P69328 25-640): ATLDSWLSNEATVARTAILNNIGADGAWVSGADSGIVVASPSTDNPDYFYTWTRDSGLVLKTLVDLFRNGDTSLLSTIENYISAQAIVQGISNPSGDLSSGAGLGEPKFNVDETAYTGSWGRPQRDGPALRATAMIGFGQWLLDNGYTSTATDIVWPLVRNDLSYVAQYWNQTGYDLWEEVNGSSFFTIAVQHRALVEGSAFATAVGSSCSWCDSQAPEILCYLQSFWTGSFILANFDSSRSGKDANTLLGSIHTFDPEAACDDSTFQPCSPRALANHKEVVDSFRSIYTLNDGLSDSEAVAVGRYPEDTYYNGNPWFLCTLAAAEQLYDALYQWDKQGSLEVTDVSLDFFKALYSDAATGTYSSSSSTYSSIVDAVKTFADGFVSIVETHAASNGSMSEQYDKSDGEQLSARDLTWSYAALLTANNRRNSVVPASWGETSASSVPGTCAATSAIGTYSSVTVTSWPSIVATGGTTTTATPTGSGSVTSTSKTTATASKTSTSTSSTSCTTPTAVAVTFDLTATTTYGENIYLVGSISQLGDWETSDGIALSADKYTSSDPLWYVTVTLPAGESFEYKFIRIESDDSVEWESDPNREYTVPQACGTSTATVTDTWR
T1 sequence (P00722 2-1024 limits assumed): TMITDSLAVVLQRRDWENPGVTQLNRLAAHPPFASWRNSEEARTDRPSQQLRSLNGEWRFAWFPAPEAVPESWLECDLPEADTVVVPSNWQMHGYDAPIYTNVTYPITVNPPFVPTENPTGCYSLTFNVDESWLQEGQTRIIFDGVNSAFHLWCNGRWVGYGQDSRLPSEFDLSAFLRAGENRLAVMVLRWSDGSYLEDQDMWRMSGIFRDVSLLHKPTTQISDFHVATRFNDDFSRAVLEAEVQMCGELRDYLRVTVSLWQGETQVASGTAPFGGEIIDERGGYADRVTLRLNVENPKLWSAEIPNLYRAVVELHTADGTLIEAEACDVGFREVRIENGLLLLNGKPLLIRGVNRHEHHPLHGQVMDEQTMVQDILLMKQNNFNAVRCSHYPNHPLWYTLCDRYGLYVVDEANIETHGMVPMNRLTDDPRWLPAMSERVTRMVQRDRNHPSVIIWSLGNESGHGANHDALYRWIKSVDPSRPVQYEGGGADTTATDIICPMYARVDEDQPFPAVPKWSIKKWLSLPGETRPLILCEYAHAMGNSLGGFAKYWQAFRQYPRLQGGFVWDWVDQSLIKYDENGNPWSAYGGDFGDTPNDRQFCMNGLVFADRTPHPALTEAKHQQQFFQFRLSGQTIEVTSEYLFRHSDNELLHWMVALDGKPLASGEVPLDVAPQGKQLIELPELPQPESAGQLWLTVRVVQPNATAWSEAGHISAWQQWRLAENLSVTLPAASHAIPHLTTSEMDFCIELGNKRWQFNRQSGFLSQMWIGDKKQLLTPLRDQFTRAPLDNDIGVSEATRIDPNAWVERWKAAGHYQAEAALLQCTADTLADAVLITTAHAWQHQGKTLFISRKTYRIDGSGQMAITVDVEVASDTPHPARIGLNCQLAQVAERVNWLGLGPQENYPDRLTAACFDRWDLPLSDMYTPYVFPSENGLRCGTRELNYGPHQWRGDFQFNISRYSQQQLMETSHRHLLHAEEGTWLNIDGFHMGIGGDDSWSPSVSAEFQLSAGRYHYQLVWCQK

In general, Ki refers to the dissociation constant of the complex between target and ligand, obtained from inhibition or displacement. For orientation: pKa means the negative logarithm of the acid dissociation constant. Read a high pKa as a weaker acid or stronger base. For `CCCCCCCCN=C1SCC2C(O)C(O)C(O)CN12` (stereo not drawn) [Compound 4, 1-Deoxy-6-thio-5-N,6-S-(N′-octyliminomethylidene)nojirimycin], the “Ki β-Galase” value in data set [1] is given as “n.i”. Moreover, the “fold stronger GCase inhibition of nonreducing vs reducing partner” value in data set [2] (3 vs 1, 4 vs 2) is reported as ~20 fold. Besides, the “fold enhancement of GCase inhibition potency upon replacement of O-6 by sulfur, pH 5” value in data set [2] (pH 5, 2 vs 1, 4 vs 3) is recorded as 107 fold. Also, the inhibition constant (Ki) was found to be 59 ± 3.5 nM in data set [2] (pH 5, read-out: Ki human GCase, pH 5); 13 ± 1.1 nM in data set [2] (pH 7, read-out: Ki human GCase, pH 7); 45 nM in data set [4]. The “fold enhancement of GCase inhibition potency upon replacement of O-6 by sulfur, pH 7” value in data set [2] (pH 7, 2 vs 1, 4 vs 3) amounted to 130 fold. The “Ki α-Glcase3” value in data set [3] is “n.i”. Besides, in data set [5], the “Ki α-Glcase1” value is “n.i. ^1”. In the data set “pKa determination”, this molecule came in with a pKa of 8.3.
